Data on 29 compounds can be found in US10865191B2, “Heterocyclic compounds useful as modulators of TNF alpha” (BRISTOL-MYERS SQUIBB COMPANY, priority 2015, dated 2020).

By IC50 is commonly meant the concentration at which inhibition is half-maximal.

The target of the experiment is TNFα (Homo sapiens, UniProt P01375). In words: TNF induced HEK-Blue assay (NF-kB-driven secreted alkaline phosphatase reporter). It counts as cell-based. Conditions: TNFα 0.5 ng/mL, HEK-Blue-CD40L cells, 18 h; read-out: TNF induced HEK-Blue assay IC50 value. As for the experimental part: TNF or CD40L-Induced HEK-Blue Assay
Chain of TNFα (P01375 77-233 limits assumed): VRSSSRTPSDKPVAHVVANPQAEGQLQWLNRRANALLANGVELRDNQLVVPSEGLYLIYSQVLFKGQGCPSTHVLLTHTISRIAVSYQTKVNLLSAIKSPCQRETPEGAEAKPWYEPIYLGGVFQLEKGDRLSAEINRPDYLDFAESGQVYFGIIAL
Test compounds serially diluted in DMSO were plated in an assay plate (LABCYTE, Cat. # LP-0200) at final concentrations ranging from 0.004 μM to 25 μM. TNFα (final concentration 0.5 ng/mL) or CD40L (final concentration 30 ng/mL) in assay buffer [DMEM, 4.5 g/l glucose (Gibco, Cat. 21063-029), 10% FBS (Sigma, F4135), 1% Penicillin-Streptomycin (Gibco, Cat. 15140-122), 1% Anti-Anti (Gibco, Cat. 15240-112) and 2 mM L-glutamine (Gibco, Cat. 25030-081)] was then added to the assay plate. After a 30 minute pre-incubation at 37° C. and 5% CO2, HEK-Blue™-CD40L cells (INVIVOGEN, Cat. Code hkb-cd40) containing a NF-kB-driven secreted alkaline phosphatase reporter gene were seeded into the assay plate at a density of 20,000 cells per well. This plate was then incubated for 18 h at 37° C. and 5% CO2. Secreted alkaline phosphatase expression was measured using QUANTI-Blue™ (INVIVOGEN, Cat. Code rep-qb1) according to manufacturer's specifications and the assay plate was read on a PerkinElmer Envision at 620 nm.
Inhibition data for the test compound over a range of concentrations was plotted as percentage inhibition of the test compound (100%=maximum inhibition). IC50 values were determined after correcting for background [(sample read-mean of low control)/(mean of high control-mean of low control)] where by the low control is DMSO without stimulation and high control is DMSO with stimulation. The IC50 is defined as the concentration of test compound which produces 50% inhibition and was quantified using the 4 parameter logistic equation to fit the data.
With `CCC(Nc1c(Cl)cnc2ccc(-c3cnc(N4CCNC(=O)C4)nc3)cc12)c1nc(C(N)=O)ccc1F` (racemic) [Example 23, 6-(1-((3-chloro-6-(2-(3-oxopiperazin-1-yl)pyrimidin-5-yl)quinolin-4-yl)amino)propyl)-5-fluoropicolinamide], the IC50 is less than 1000 nM.

For `CCC(Nc1c(Cl)cnc2ccc(-c3ccc(C(C)(C)O)cc3)cc12)c1nc(C(N)=O)ccc1F` (racemic) [Example 24, 6-(1-((3-chloro-6-(4-(2-hydroxypropan-2-yl)phenyl)quinolin-4-yl)amino)propyl)-5-fluoropicolinamide], the IC50 was less than 1000 nM.

`CC(Nc1c(Cl)cnc2ccc(-c3ccc(C(C)(C)O)cc3)cc12)c1nc(C(N)=O)ccc1F` (racemic) [Example 27, 6-(1-((3-chloro-6-(4-(2-hydroxypropan-2-yl)phenyl)quinolin-4-yl)amino)ethyl)-5-fluoropicolinamide]: the IC50 is less than 1000 nM.

Turning to `CC(Nc1c(Cl)cnc2ccc(-c3cnc(C(C)(C)O)nc3)cc12)c1nc(C(N)=O)ccc1F` (racemic) [Example 28, 6-(1-((3-chloro-6-(2-(2-hydroxypropan-2-yl)pyrimidin-5-yl)quinolin-4-yl)amino)ethyl)-5-fluoropicolinamide], the IC50 was less than 1000 nM.

With `CC(Nc1c(Cl)cnc2ccc(-c3cnc(N4CCNC(=O)C4)nc3)cc12)c1nc(C(=O)Nc2ccccc2)ccc1F` (racemic) [Example 38, 6-(1-((3-chloro-6-(2-(3-oxopiperazin-1-yl)pyrimidin-5-yl)quinolin-4-yl)amino)ethyl)-5-fluoro-N-phenylpicolinamide], the IC50 is 1000 to 10000 nM.

As to `CCNC(=O)c1ccc(F)c(C(C)Nc2c(Cl)cnc3ccc(-c4cnc(N5CCNC(=O)C5)nc4)cc23)n1` (racemic) [Example 39, 6-(1-((3-chloro-6-(2-(3-oxopiperazin-1-yl)pyrimidin-5-yl)quinolin-4-yl)amino)ethyl)-N-ethyl-5-fluoropicolinamide], the IC50 was less than 1000 nM.

In the case of `CC1Cc2ccccc2N1Nc1c(Cl)cnc2ccc(-c3cnc(C(C)(C)O)nc3)cc12` (racemic) [Example 48, 2-(5-(3-chloro-4-((2-methylindolin-1-yl)amino)quinolin-6-yl)pyrimidin-2-yl)propan-2-ol], the IC50 is less than 1000 nM.

Consider `CC(C)(O)c1ncc(-c2ccc3ncc(Cl)c(NC(c4ccccc4F)C(C)(C)O)c3c2)cn1` (racemic) [Example 49, 1-((3-chloro-6-(2-(2-hydroxypropan-2-yl)pyrimidin-5-yl)quinolin-4-yl)amino)-1-(2-fluorophenyl)-2-methylpropan-2-ol], for which the IC50 is less than 1000 nM.

With `CCC(Nc1c(Cl)cnc2ccc(-c3cnc(C(C)(C)O)nc3)cc12)C1CCC1` (racemic) [Example 50, 2-(5-(3-chloro-4-((1-cyclobutylpropyl)amino)quinolin-6-yl)pyrimidin-2-yl)propan-2-ol], the IC50 is less than 1000 nM.

For the compound `CC(C)C(Nc1c(Cl)cnc2ccc(-c3cnc(C(C)(C)O)nc3)cc12)c1ccccn1` (racemic) [Example 51, 2-(5-(3-chloro-4-((2-methyl-1-(pyridin-2-yl)propyl)amino)quinolin-6-yl)pyrimidin-2-yl)propan-2-ol], the IC50 was less than 1000 nM.

For the compound `CCC(Nc1c(Cl)cnc2ccc(-c3cnc(C(C)(C)O)nc3)cc12)c1ccccn1` (racemic) [Example 52, 2-(5-(3-chloro-4-((1-(pyridin-2-yl)propyl)amino)quinolin-6-yl)pyrimidin-2-yl)propan-2-ol], the IC50 was less than 1000 nM.

Consider `CC(C)(O)c1ncc(-c2ccc3ncc(Cl)c(NC(c4ccccc4)C(F)F)c3c2)cn1` (racemic) [Example 57, 2-(5-(3-chloro-4-((2,2-difluoro-1-phenylethyl)amino)quinolin-6-yl)pyrimidin-2-yl)propan-2-ol], for which the IC50 was less than 1000 nM.

With `CC(Nc1c(Cl)cnc2ccc(-c3cnc(C(C)(C)O)nc3)cc12)c1cc(Cl)ccn1` (racemic) [Example 62, 2-(5-(3-chloro-4-((1-(4-chloropyridin-2-yl)ethyl)amino)quinolin-6-yl)pyrimidin-2-yl)propan-2-ol], the IC50 was in the range of 1000 to 10000 nM.

For `CCC(Nc1c(Cl)cnc2ccc(-c3cnc(C(C)(C)O)nc3)cc12)c1nc(Br)ccc1F` (racemic) [Example 64, 2-(5-(4-((1-(6-bromo-3-fluoropyridin-2-yl)propyl)amino)-3-chloroquinolin-6-yl)pyrimidin-2-yl)propan-2-ol], the IC50 is less than 1000 nM.

As for `Cc1ccc(C)c(Nc2c(Cl)c(N)nc3ccc(-c4cnc(NCC(O)CO)nc4)cc23)c1` (racemic) [Example 73, 3-((5-(2-amino-3-chloro-4-((2,5-dimethylphenyl)amino)quinolin-6-yl)pyrimidin-2-yl)amino)propane-1,2-diol], the IC50 lay within 1000 to 10000 nM.

Regarding `CC(Nc1c(Cl)cnc2ccc(-c3cnc(C(C)(C)O)nc3)cc12)[C@@H]1CCCNC1` (mixture of isomers) [Example 98, (R)-2-(5-(3-chloro-4-((1-(piperidin-3-yl)ethyl)amino)quinolin-6-yl)pyrimidin-2-yl)propan-2-ol], the IC50 fell in the range of 10000 to 25000 nM.

`CC(Nc1c(Cl)cnc2c(Cl)cc(Br)cc12)c1ccccc1F` (racemic) [Example 122, 6-bromo-3,8-dichloro-N-(1-(2-fluorophenyl)ethyl)quinolin-4-amine]: the IC50 fell in the range of 10000 to 25000 nM.

On to `C=Cc1ccc(F)c(C(CC)Nc2c(Cl)cnc3ccc(-c4cnc(C(C)(C)O)nc4)cc23)n1` (racemic) [Example 126, 2-(5-(3-chloro-4-((1-(3-fluoro-6-vinylpyridin-2-yl)propyl)amino)quinolin-6-yl)pyrimidin-2-yl)propan-2-ol], for which the IC50 is less than 1000 nM.

With `CC(Cc1ccco1)Nc1c(Cl)cnc2ccc(-c3cnc(C(C)(C)O)nc3)cc12` (racemic) [Example 133, 2-(5-(3-chloro-4-((1-(furan-2-yl)propan-2-yl)amino)quinolin-6-yl)pyrimidin-2-yl)propan-2-ol], the concentration for half-maximal inhibition (IC50) is less than 1000 nM.

As for `CC1=C(CC(C)Nc2c(Cl)cnc3ccc(-c4cnc(C(C)(C)O)nc4)cc23)CCC1(C)C` (racemic) [Example 134, 2-(5-(3-chloro-4-((1-(2,3,3-trimethylcyclopent-1-en-1-yl)propan-2-yl)amino)quinolin-6-yl)pyrimidin-2-yl) propan-2-ol], the IC50 was 1000 to 10000 nM.

In the case of `CC(C)CC(C)Nc1c(Cl)cnc2ccc(-c3cnc(C(C)(C)O)nc3)cc12` (racemic) [Example 135, 2-(5-(3-chloro-4-((4-methylpentan-2-yl)amino)quinolin-6-yl)pyrimidin-2-yl)propan-2-ol], the IC50 is less than 1000 nM.

In the case of `CC(Cc1ccc(OC(F)(F)F)cc1)Nc1c(Cl)cnc2ccc(-c3cnc(C(C)(C)O)nc3)cc12` (racemic) [Example 137, 2-(5-(3-chloro-4-((1-(4-(trifluoromethoxy)phenyl)propan-2-yl)amino)quinolin-6-yl)pyrimidin-2-yl)propan-2-ol], the IC50 lay within 1000 to 10000 nM.

Turning to `CC(Cc1cn(C)c(=O)c2ccccc12)Nc1c(Cl)cnc2ccc(-c3cnc(C(C)(C)O)nc3)cc12` (racemic) [Example 138, 4-(2-((3-chloro-6-(2-(2-hydroxypropan-2-yl)pyrimidin-5-yl)quinolin-4-yl)amino)propyl)-2-methylisoquinolin-1(2H)-one], the IC50 was in the range of 10000 to 25000 nM.

Consider `CCCCCC(C)Nc1c(Cl)cnc2ccc(-c3cnc(C(C)(C)O)nc3)cc12` (racemic) [Example 139, 2-(5-(3-chloro-4-(heptan-2-ylamino)quinolin-6-yl)pyrimidin-2-yl) propan-2-ol], for which the IC50 is less than 1000 nM.

As for `CC(CC1CCCC1)Nc1c(Cl)cnc2ccc(-c3cnc(C(C)(C)O)nc3)cc12` (racemic) [Example 140, 2-(5-(3-chloro-4-((1-cyclopentylpropan-2-yl)amino)quinolin-6-yl)pyrimidin-2-yl)propan-2-ol], the IC50 was less than 1000 nM.

For the compound `Cc1ccc2c(CCC(C)Nc3c(Cl)cnc4ccc(-c5cnc(C(C)(C)O)nc5)cc34)c[nH]c2c1` (racemic) [Example 141, 2-(5-(3-chloro-4-((4-(6-methyl-1H-indol-3-yl)butan-2-yl)amino)quinolin-6-yl)pyrimidin-2-yl)propan-2-ol], the IC50 lay within 10000 to 25000 nM.

`CC(Nc1c(Cl)cnc2ccc(-c3cnc(C(C)(C)O)nc3)cc12)C1(c2ccc(Cl)cc2)CCCC1` (racemic) [Example 142, 2-(5-(3-chloro-4-((1-(1-(4-chlorophenyl)cyclopentyl)ethyl)amino)quinolin-6-yl)pyrimidin-2-yl)propan-2-ol]: the IC50 was in the range of 10000 to 25000 nM.

Take `CC(CC(O)(c1ccccc1)c1ccccc1)Nc1c(Cl)cnc2ccc(-c3cnc(C(C)(C)O)nc3)cc12` (racemic) [Example 143, 3-((3-chloro-6-(2-(2-hydroxypropan-2-yl)pyrimidin-5-yl)quinolin-4-yl)amino)-1,1-diphenylbutan-1-ol]: the IC50 fell in the range of 10000 to 25000 nM.

Regarding `CC(Cc1cccc2[nH]ccc12)Nc1c(Cl)cnc2ccc(-c3cnc(C(C)(C)O)nc3)cc12` (racemic) [Example 144, 2-(5-(4-((1-(1H-indol-4-yl)propan-2-yl)amino)-3-chloroquinolin-6-yl)pyrimidin-2-yl)propan-2-ol], the IC50 lay within 1000 to 10000 nM.
